SMILES	CH4 permeability [Barrer]	CO2 permeability [Barrer]	H2 permeability [Barrer]	N2 permeability [Barrer]	O2 permeability [Barrer]
*/C(C)=C(/*)[Si](C)(C)C (repeat unit)	15000	28600	15000	6600	9000
*/C=C/C1CC(*)CC1[Si](C)(C)C[Si](C)(C)C (repeat unit)	8.5	67	73	3.7	16
*/C=C/C1CCC(*)C1 (repeat unit)	2.5	15.4	21	1.5	2.8
*/N=C1/c2ccc(C(c3ccc4c(c3)-c3nc5cc(Oc6ccc(*)c(*)c6)ccc5n3C4=O)(C(F)(F)F)C(F)(F)F)cc2C(=O)N1* (repeat unit)	0.54	27.6	–	1.2	7.9
*=CC1CC(C=*)C(C(F)(F)F)(C(F)(F)F)C1(F)F (repeat unit)	9.54	102	–	10.7	27.7
*=CC1CCC(C=*)C1 (repeat unit)	2.5	15.4	21	1.5	2.8
*C(C)=C(*)[Si](C)(C)C (repeat unit)	14500	31900	15500	5650	12200
*C(F)(F)C(*)(F)F (repeat unit)	10	12.7	–	–	4.9
*C1C(*)C2CC1C1C2C([Si](C)(C)C)C1[Si](C)(C)C (repeat unit)	3310	11300	4090	1240	2380
*C1C2CC(C1*)C([Si](C)(C)C)C2 (repeat unit)	1090	–	6700	–	1700
*C1C2CC(CF)C(C2)C1* (repeat unit)	13	200	166	17	50
*C=C(*)c1cccc(O[Si](C)(C)C(C)(C)C)c1 (repeat unit)	12	58	64	7.6	17
*CC(*)(C)C(=O)OCC (repeat unit)	0.347	6.03	21.8	0.276	1.52
*CC(*)(C)C(=O)OCC(F)(F)C(F)(F)C(F)(F)C(F)(F)C(F)(F)C(F)(F)C(F)(F)F (repeat unit)	14	130	82	15	30
*CC(*)(C)C(=O)OCCOCC (repeat unit)	1.23	8.56	–	0.385	1.45
*CC(*)(C)c1ccccc1 (repeat unit)	0.14	3	–	0.15	0.82
*CC(*)(F)F (repeat unit)	0.02	0.517	0.538	0.0223	0.0826
*CC(*)C(=O)OC (repeat unit)	0.262	8.19	10.6	0.213	1.06
*CC(*)C(=O)OCC (repeat unit)	14.9	176	60.4	6.46	19
*CC(*)C(=O)OCCCCCCCCCC (repeat unit)	47.8	261	92.7	19	47.6
*CC(*)OC(=O)c1ccc(C)cc1 (repeat unit)	0.417	6.73	–	0.339	1.72
*CC(*)[Si](C)(C)C (repeat unit)	18	190	200	11	44
*CC(*)c1ccc(C)cc1 (repeat unit)	2.2	29.8	–	1.5	7.2
*CC(*)c1ccc(Cl)cc1 (repeat unit)	0.26	4.3	–	0.23	1.2
*CC(*)c1ccc(OC(C)=O)cc1 (repeat unit)	0.99	16.3	–	0.64	3.1

SMILES	CH4 permeability [Barrer]	CO2 permeability [Barrer]	H2 permeability [Barrer]	N2 permeability [Barrer]	O2 permeability [Barrer]
*CC(*)c1ccc(OC)cc1 (repeat unit)	0.91	18.9	–	0.61	2.6
*CC(*)c1ccc([Si](C)(C)C)cc1 (repeat unit)	34	227	182	16	56
*CC(C)C(=O)OC(C)C(*)=O (repeat unit)	1	0.905	–	0.04	0.26
*CC* (repeat unit)	3.85	7.32	–	0.237	0.735
*CC1CC(C*)C2C1C([Si](O[Si](C)(C)C)(O[Si](C)(C)C)O[Si](C)(C)C)C2[Si](O[Si](C)(C)C)(O[Si](C)(C)C)O[Si](C)(C)C (repeat unit)	215	840	460	75	220
*CCCC* (repeat unit)	13	48.4	–	4	11.3
*CCCCO* (repeat unit)	22.5	170	36	8.85	21.5
*CCC[Si](*)(C)C (repeat unit)	8.4	–	–	3	9.5
*CCOC(=O)c1ccc(C(=O)O*)cc1 (repeat unit)	3	0.173	–	0.013	0.045
*CC[Si](C)(C)c1ccc([Si](*)(C)C)cc1 (repeat unit)	0.53	4.01	–	0.257	1.11
*CN1CN(*)c2cc3c(cc21)C1(C(C)C)c2ccccc2C3(C(C)C)c2cc(*)c(*)cc21 (repeat unit)	215	–	4740	188	1070
*N=P(*)(C)c1ccccc1 (repeat unit)	0.7	6.5	–	0.6	1.8
*NC(=O)c1ccc(C(c2ccc(C(=O)O)c(C(=O)Nc3cc(Oc4ccc(*)c(N)c4)ccc3N)c2)(C(F)(F)F)C(F)(F)F)cc1C(=O)O (repeat unit)	0.087	3.69	–	0.17	0.97
*NCC(C)(C)CC(C)CCNC(=O)c1ccc(C(*)=O)cc1 (repeat unit)	0.018	0.33	–	0.016	0.092
*Nc1c(C)cc(C(C)(C)c2cc(C)c(NC(=O)c3ccc(Oc4cc(C(C)(C)C)c(Oc5ccc(C(*)=O)cc5)cc4C(C)(C)C)cc3)c(C)c2)cc1C (repeat unit)	2.24	43	–	1.73	9.38
*Nc1ccc(C(c2ccc(NC(=O)c3ccc(Oc4cc(C(C)(C)C)c(Oc5ccc(C(*)=O)cc5)cc4C(C)(C)C)cc3)cc2)(C(F)(F)F)C(F)(F)F)cc1 (repeat unit)	1.24	36	–	1.51	7.88
*Nc1ccc(C(c2ccc(NC(=O)c3cccc(C(*)=O)c3)cc2)(C(F)(F)F)C(F)(F)F)cc1 (repeat unit)	0.2	9	29	0.42	2.4
*Nc1ccc(Oc2c(F)c(F)c(Oc3ccc(NC(=O)CN4C(=O)c5ccc(C(*)=O)cc5C4=O)cc3)c(F)c2F)cc1 (repeat unit)	0.013	1.27	–	0.071	0.284
*Nc1ccc(S(=O)(=O)c2ccc(NC(=O)c3cccc(C(*)=O)c3)cc2)cc1 (repeat unit)	0.014	0.78	4.3	0.031	0.19
*Nc1cccc(NC(=O)c2ccc(C(c3ccc(C(*)=O)cc3)(C(F)(F)F)C(F)(F)F)cc2)c1 (repeat unit)	0.24	8.4	23	0.4	2.2
*OC(=O)Oc1c(C)cc(C(C)(C)c2cc(C)c(*)c(C)c2)cc1C (repeat unit)	0.955	19.6	–	1.07	5.54
*OC(=O)Oc1ccc(C(=C(Cl)Cl)c2ccc(*)cc2)cc1 (repeat unit)	0.27	6.5	11.3	0.26	1.4
*OC(=O)Oc1ccc(C2(c3ccc(*)cc3)CC3CCC2C3)cc1 (repeat unit)	0.48	9.1	22	0.47	2.4
*OC(=O)Oc1ccc(C2(c3ccc(*)cc3)CCCCC2)cc1 (repeat unit)	0.092	2.2	9.1	0.105	0.6
*OC(=O)Oc1ccc(C2(c3ccc(*)cc3)c3ccccc3-c3ccccc32)cc1 (repeat unit)	0.581	15.1	–	0.592	3.18

Source: a polymer gas permeability compilation
